Patent US8318781B2, “G-protein-conjugated receptor agonist” (Japan Science and Technology Agency, priority 2007, dated 2012)

How the values were obtained:
[1] = molecular target: T1, human GPR120 (hGPR120) (Homo sapiens, UniProt Q5NUL3); assay: Determination of intracellular Ca2+ concentration (FLIPR), cell line TXGPR120; format: cell-based; details: for selectivity between GPR40 and GPR120 (in words), from Tables 3 and 4: GPR40 versus GPR120, Ca2+ and ERK results; for EC50 / [Ca^2+]/GPR120 10 μM (ratio vs. LA): TXGPR120 cells; for EC50: maximum fluorescence intensity vs ligand concentration, read-out: [Ca^2+]/GPR120 pEC50 (converted); for agonistic activity for hGPR120 (in words): cells in which GPR120 has been transgenically expressed; for [Ca^2+]/GPR120 10 μM (ratio vs. LA): relative fluorescence intensity vs LA at 10 μM
T1 construct: expressed in transfected cells; doxycycline-inducible expression vector
T1 sequence (Q5NUL3 1-361): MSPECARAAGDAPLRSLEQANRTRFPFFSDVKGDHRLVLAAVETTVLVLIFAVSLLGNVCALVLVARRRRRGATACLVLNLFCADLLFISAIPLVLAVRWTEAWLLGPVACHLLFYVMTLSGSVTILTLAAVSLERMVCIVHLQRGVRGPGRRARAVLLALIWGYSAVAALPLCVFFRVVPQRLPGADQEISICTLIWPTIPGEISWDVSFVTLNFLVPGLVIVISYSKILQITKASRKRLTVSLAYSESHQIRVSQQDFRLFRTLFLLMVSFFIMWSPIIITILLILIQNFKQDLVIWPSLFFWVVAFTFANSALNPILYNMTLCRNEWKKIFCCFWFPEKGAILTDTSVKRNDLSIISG

[2] = molecular target: T2, human GPR40 (hGPR40) (Homo sapiens, UniProt O14842); assay: Determination of intracellular Ca2+ concentration (FLIPR), cell line TXGPR40; format: cell-based; details: for EC50 / [Ca^2+]/GPR40 10 μM (ratio vs. LA): TXGPR40 cells; for EC50: maximum fluorescence intensity vs ligand concentration, read-out: [Ca^2+]/GPR40 pEC50 (converted); for agonistic activity for GPR40 (in words): cells in which GPR40 has been transgenically expressed; for [Ca^2+]/GPR40 10 μM (ratio vs. LA): relative fluorescence intensity vs LA at 10 μM
T2 construct: expressed in transfected cells; doxycycline-inducible expression vector
T2 sequence (O14842 whole entry): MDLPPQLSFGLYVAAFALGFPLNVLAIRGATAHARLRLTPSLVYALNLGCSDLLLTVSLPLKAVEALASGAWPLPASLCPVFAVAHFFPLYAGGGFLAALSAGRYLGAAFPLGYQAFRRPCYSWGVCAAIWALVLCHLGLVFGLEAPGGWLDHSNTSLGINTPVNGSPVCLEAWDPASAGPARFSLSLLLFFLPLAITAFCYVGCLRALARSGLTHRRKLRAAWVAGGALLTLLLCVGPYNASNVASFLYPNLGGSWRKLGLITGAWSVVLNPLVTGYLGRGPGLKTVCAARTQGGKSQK

Compound | selectivity between GPR40 and GPR120 (in words), from Tables 3 and 4 [1] | EC50 [1] [µM] | agonistic activity for hGPR120 (in words) [1] | [Ca^2+]/GPR120 10 μM (ratio vs. LA) [1] | EC50 [2] [µM] | agonistic activity for GPR40 (in words) [2] | [Ca^2+]/GPR40 10 μM (ratio vs. LA) [2]
O=C(O)CCCc1ccc(OCCN(c2ccccc2)c2nccs2)cc1 [NCG46] | acting relatively mildly for GPR40 but acting strongly for GPR120 | 5.25 | exhibit a similar effect | 1.60 | 21.4 | showed a specific reactivity | 0.30
CN(C)c1ccc(N(CCOc2ccc(CCCC(=O)O)cc2)c2ccccn2)cc1 [NCG54] | acting relatively mildly for GPR40 but acting strongly for GPR120 | 15.8 | exhibit a similar effect | 0.66 | 24 | showed a specific reactivity | 0.07
